# According to publication PMC5403251 (Neuropharmacology, 2016):
# Key:
# C57BL/6J mice [1] = assay: Discrete-trials temporal discrimination task; format: in vivo, mouse
# C57BL/6J mice [2] = assay: Head twitch response; format: in vivo, mouse
# human 5-HT2C receptor = molecular target: T1, human 5-HT2C receptor (Homo sapiens, UniProt P28335); assay: NIMH PDSP competitive radioligand binding, [3H]mesulergine
# T1 sequence (P28335 33-458): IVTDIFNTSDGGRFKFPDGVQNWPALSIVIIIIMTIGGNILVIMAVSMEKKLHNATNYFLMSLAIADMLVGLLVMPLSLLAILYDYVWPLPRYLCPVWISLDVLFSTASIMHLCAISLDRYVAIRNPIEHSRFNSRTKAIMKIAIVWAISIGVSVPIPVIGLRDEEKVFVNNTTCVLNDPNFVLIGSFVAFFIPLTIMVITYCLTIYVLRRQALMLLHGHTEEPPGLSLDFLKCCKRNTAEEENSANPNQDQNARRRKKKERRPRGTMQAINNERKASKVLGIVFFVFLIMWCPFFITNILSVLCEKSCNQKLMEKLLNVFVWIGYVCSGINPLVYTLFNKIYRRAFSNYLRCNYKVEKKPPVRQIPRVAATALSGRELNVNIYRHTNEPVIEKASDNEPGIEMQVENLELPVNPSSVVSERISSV
# α2C = molecular target: T2, α2C (Homo sapiens, UniProt P18825); assay: NIMH PDSP binding screen
# T2 sequence (P18825 1-462): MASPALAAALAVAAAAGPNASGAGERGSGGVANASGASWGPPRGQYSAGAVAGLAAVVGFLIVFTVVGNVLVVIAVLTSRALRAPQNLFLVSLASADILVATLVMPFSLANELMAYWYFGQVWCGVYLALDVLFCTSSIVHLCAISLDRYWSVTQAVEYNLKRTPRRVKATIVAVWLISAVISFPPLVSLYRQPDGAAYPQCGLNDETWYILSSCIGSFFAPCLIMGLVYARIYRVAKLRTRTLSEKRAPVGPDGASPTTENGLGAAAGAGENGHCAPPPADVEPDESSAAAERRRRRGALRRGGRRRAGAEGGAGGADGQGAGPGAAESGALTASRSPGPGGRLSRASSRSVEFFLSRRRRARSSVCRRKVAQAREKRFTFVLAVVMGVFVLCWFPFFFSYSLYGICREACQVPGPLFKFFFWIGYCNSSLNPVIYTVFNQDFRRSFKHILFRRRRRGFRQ
# 5-HT6 = 5-HT6 (Homo sapiens, UniProt P50406); assay: NIMH PDSP binding screen
# Chain of 5-HT6 (P50406 whole entry, species assumed): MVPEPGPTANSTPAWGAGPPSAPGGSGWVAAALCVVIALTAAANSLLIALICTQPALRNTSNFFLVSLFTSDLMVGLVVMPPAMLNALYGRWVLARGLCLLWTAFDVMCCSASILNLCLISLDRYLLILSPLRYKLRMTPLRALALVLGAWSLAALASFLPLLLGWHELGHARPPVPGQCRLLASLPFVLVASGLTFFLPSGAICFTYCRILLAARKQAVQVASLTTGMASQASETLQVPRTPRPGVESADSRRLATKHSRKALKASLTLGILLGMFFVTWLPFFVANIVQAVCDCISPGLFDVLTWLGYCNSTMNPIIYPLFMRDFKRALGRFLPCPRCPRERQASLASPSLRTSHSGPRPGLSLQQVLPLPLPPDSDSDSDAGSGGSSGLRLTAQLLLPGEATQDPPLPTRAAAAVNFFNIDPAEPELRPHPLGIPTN
# sigma-2 = molecular target: T3, sigma-2 (Rattus norvegicus, UniProt Q5U3Y7); assay: NIMH PDSP binding screen
# T3 sequence (Q5U3Y7 1-176): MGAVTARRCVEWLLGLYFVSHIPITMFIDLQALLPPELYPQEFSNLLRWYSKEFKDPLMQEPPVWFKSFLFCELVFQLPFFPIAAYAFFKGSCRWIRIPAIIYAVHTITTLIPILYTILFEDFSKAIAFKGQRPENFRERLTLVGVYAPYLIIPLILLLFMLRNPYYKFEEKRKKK
# α2A = molecular target: T4, α2A (Homo sapiens, UniProt P08913); assay: NIMH PDSP binding screen
# T4 sequence (P08913 1-465): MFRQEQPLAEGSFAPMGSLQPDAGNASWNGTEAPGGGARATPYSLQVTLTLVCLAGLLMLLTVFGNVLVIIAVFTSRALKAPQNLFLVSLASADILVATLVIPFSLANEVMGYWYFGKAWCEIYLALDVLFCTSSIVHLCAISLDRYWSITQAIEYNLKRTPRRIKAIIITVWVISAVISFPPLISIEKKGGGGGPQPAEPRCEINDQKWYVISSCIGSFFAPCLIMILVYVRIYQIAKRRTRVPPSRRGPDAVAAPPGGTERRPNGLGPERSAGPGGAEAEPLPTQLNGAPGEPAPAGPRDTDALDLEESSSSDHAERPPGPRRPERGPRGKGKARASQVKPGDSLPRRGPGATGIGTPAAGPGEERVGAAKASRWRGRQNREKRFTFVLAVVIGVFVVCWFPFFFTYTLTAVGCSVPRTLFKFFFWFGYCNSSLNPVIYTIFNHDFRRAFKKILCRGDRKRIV
# α2B = molecular target: T5, α2B (Homo sapiens, UniProt P18089); assay: NIMH PDSP binding screen
# T5 sequence (P18089 1-450): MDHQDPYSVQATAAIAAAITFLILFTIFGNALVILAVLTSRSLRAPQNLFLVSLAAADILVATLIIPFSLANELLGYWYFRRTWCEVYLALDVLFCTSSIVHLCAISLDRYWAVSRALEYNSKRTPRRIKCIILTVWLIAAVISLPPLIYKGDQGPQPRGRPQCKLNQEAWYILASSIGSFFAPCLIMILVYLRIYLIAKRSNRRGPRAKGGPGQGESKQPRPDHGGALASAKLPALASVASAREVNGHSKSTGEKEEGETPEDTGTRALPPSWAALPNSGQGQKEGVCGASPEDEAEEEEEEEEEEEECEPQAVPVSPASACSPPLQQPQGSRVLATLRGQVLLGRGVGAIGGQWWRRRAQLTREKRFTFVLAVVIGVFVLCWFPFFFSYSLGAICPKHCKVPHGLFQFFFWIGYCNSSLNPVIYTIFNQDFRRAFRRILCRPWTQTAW
# histaminergic H2 = histaminergic H2 (Homo sapiens, UniProt P25021); assay: NIMH PDSP binding screen
# Chain of histaminergic H2 (P25021 whole entry): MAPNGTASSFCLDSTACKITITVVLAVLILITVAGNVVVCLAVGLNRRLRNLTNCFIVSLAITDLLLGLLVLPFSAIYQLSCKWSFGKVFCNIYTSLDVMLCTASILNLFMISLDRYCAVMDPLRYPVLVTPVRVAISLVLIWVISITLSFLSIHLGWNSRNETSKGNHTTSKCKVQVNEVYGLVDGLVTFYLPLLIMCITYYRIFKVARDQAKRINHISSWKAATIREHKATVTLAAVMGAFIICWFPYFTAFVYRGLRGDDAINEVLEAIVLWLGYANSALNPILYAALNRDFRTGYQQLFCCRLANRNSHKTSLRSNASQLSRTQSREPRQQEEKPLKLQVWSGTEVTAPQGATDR
# β2 = β2 (Homo sapiens, UniProt P07550); assay: NIMH PDSP binding screen
# Chain of β2 (P07550 whole entry): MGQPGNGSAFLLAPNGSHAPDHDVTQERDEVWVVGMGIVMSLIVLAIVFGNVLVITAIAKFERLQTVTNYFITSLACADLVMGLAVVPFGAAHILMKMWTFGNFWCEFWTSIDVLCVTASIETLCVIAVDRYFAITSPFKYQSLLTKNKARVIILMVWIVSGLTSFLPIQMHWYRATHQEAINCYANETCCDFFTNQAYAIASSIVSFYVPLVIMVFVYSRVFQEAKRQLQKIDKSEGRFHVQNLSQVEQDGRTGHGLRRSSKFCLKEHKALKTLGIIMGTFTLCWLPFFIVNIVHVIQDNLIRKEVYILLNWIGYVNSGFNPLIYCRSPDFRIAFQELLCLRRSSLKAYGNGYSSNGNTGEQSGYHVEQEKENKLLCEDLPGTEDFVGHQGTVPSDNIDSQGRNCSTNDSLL
# NIH Swiss mice = settings: mediated by the 5-HT2A receptor, ref Fantegrossi et al., 2014; cited from earlier work
# 5-HT2C receptors = settings: ref Kennett et al., 1997; cited from earlier work
# 5-HT2C = settings: in mice; ref Canal et al., 2013; cited from earlier work
# [3] = 25CN-NBOH 1 mg/kg SC, 5 min before session
# [4] = 25CN-NBOH 6 mg/kg SC, 5 min before session
# [5] = SB-242,084 0.1 mg/kg SC, 10 min before session
# [6] = SB-242,084 0.3 mg/kg SC, 10 min before session
# [7] = SB-242,084 1 mg/kg SC, 10 min before session
compound,measurement,setting,value
"COc1cc(CCNCc2ccccc2O)c(OC)cc1C#N.Cl [25CN-NBOH, N-(2-hydroxybenzyl)-2,5-dimethoxy-4-cyanophenethylamine hydrochloride]",Difference limen,C57BL/6J mice [1]; [3],1.09 ± 0.11 s
same,Slope (ε),C57BL/6J mice [1]; [3],1.098±0.125
same,T50,C57BL/6J mice [1]; [3],6.33 ± 0.20 s
same,Trials completed,C57BL/6J mice [1]; [3],182.4±3.7
same,Weber fraction,"C57BL/6J mice [1]; 25CN-NBOH 1 mg/kg SC, 5 min before session, mean±SEM",0.175±0.020
same,%B responding (proportional choice of lever B),C57BL/6J mice [1]; 25CN-NBOH 6 mg/kg SC,reduced %B responding at long stimulus intervals
same,Difference limen,C57BL/6J mice [1]; [4],1.65 ± 0.12 s
same,T50,C57BL/6J mice [1]; [4],7.63 ± 0.24 s
same,Trials completed,C57BL/6J mice [1]; [4],134.5±8.4
same,Weber fraction,C57BL/6J mice [1]; [4],0.217±0.015
same,%B responding (proportional choice of lever B),C57BL/6J mice [1]; 25CN-NBOH 0.3–3 mg/kg SC,did not significantly alter %B responding
same,Correct responding during the 10.5 s-trials,C57BL/6J mice [1]; after drug treatment that reduced %B responding at long stimulus intervals,more than 80%
same,ED50,"C57BL/6J mice [2]; Mus musculus, sc, 0.5 h, read-out: HTR ED50",0.36 mg/kg
same,Dose producing the maximal HTR response,"C57BL/6J mice [2]; SC, 30-min session",3 mg/kg
same,Ki,human 5-HT2C receptor,49.8 ± 7.4 nM
same,Ki,α2C,543 nM
same,Ki,5-HT6,573 nM
same,Ki,sigma-2,575 nM
same,Ki,α2A,803 nM
same,Ki,α2B,1230 nM
same,Ki,histaminergic H2,1510 nM
same,Ki,β2,1610 nM
same,Head twitch response (HTR),NIH Swiss mice,induce the head twitch response
"6-chloro-2,3-dihydro-5-methyl-N-[6-[(2-methyl-3-pyridinyl)oxy]-3-pyridinyl]-1H-indole-1-carboxyamide dihydrochloride [SB-242,084]",Effect of pretreatment on the response to DOI (%B responding),"C57BL/6J mice [1]; SB-242,084 0.1 mg/kg SC pretreatment, DOI 3 mg/kg IP",did not block the ability of DOI to alter %B responding
same,Difference limen,C57BL/6J mice [1]; [5],0.98 ± 0.10 s
same,Slope (ε),C57BL/6J mice [1]; [5],1.202±0.110
same,T50,C57BL/6J mice [1]; [5],6.28 ± 0.14 s
same,Trials completed,C57BL/6J mice [1]; [5],191.4±1.6
same,Weber fraction,"C57BL/6J mice [1]; SB-242,084 0.1 mg/kg SC, 10 min before session, mean±SEM",0.156±0.016
same,Difference limen,C57BL/6J mice [1]; [6],1.05 ± 0.08 s
same,Slope (ε),C57BL/6J mice [1]; [6],1.094±0.084
same,T50,C57BL/6J mice [1]; [6],6.02 ± 0.14 s
same,Trials completed,C57BL/6J mice [1]; [6],189.9±2.5
same,Weber fraction,C57BL/6J mice [1]; [6],0.173±0.015
same,Difference limen,C57BL/6J mice [1]; [7],1.07 ± 0.09 s
same,Slope (ε),C57BL/6J mice [1]; [7],1.105±0.108
same,T50,C57BL/6J mice [1]; [7],5.66 ± 0.17 s
same,Trials completed,C57BL/6J mice [1]; [7],188.0±2.8
same,Weber fraction,C57BL/6J mice [1]; [7],0.191±0.018
same,Selectivity for 5-HT2C receptors compared with 5-HT2A and 5-HT2B receptors,5-HT2C receptors,over 100 fold
same,Selectivity for 5-HT2C over 5-HT2A,5-HT2C,960 fold
